In publication PMC8838521, “Antimicrobial, Cytotoxic and Mutagenic Activity of Gemini QAS Derivatives of 1,4:3,6-Dianhydro-L-iditol” (Molecules, 2022):
Like-named read-outs stand apart in the source and are kept apart here.

Experiments:
[1] = system: human keratinocytes (HaCaT cell line); assay: Cytotoxicity, MTT assay; assay type: cell-based; settings: Homo sapiens, HaCaT, read-out: HaCaT IC50
Method: To assess the cytotoxicity of QAS (IC50), the MTT assay on 96-well polystyrene plates was performed for human keratinocytes (HaCaT, Elabscience Biotechnology Inc., Houston, Texas, USA). The assay utilizes colorimetric determination of the cell metabolic activity and the color intensity reflects the number of live cells that can be measured spectrophotometrically. The cell line was cultured in a Dulbecco’s modified Eagle Medium (Invitrogen) supplemented with 10% fetal bovine serum (Sigma Aldrich) (v/v), 100 units/mL of penicillin, 100 μg/mL of streptomycin, and 2 mM L-glutamine and was stored at 37 °C in a humidified 5% CO2 incubator. Briefly, a day after plating of 500 cells per well, a series of concentrations (0.5–200 μg/mL) of the test compounds was applied. DMSO was added to the control cells at a final concentration of 1.0% (v/v), which was related to the maximal concentration of the solvent compounds used in the experiment. After 24 h of incubation with the QAS at 37 °C (humidified 5% CO2 incubator), a medium containing 1 mg/mL of MTT (3-(4,5-dimethylthiazol-2-yl)-2,5-diphenyltetrazolium bromide) was added to the wells up to a final concentration of 0.5 mg/mL. Subsequently, the plates were incubated at 37 °C for 4 h. Then, the medium was removed by suction, and the formazan product was solubilized with DMSO. The background absorbance at 630 nm was subtracted from that at 570 nm for each well (Epoch, BioTek Instruments, Winooski, VT, USA). Six replicates were conducted for each concentration. All experiments were repeated at least twice and the resulting IC50 values were calculated with GraFit 7 software (v. 7.0, Erithacus, Berkley, CA, USA).

[2] = system: Staphylococcus aureus ATCC 25923; assay: Antimicrobial activity, microdilution MIC, S. aureus reference strain; assay type: cell-based; settings: for MIC: Staphylococcus aureus, ATCC25923, 24 h
Method: (§1) The antimicrobial potential of the tested agents was evaluated against two reference strains of bacteria: Staphylococcus aureus ATCC 25923 and Escherichia coli K12, two reference strains of pathogenic yeasts, Candida albicans ATCC10231 and Candida glabrata DSMZ11226, as well as 20 strains of clinical isolates of S. aureus collected from patients with skin and soft tissue infections (n = 8) and strains derived from subclinical bovine mastitis milk samples (n = 12). Four of these strains, two isolated from human infections and two isolated from bovine mastitis, were classified as MRSA (Methicillin-resistant Staphylococcus aureus). All of them were mecA positive and their methicillin resistance was confirmed with the disc diffusion assay. The remaining 16 strains were MSSA (Methicillin-sensitive Staphylococcus aureus). The assays were performed using a serial, two-fold dilution method in 96-well microtiter plates under conditions recommended by the Clinical and Laboratory Standards Institute (CLSI, Pittsburgh, PA, USA). The aim of this procedure was the determination of the MIC parameter (Minimum Inhibitory Concentration)—the minimum concentration of a tested agent capable to inhibit the growth of a specified strain of microorganism. The agents were solubilized in deionized, sterile water to a final concentration of […]. Subsequently, solutions were mixed (1:1 (v/v)) with 2 × concentrated liquid medium, Mueller-Hinton Broth 2—cation adjusted (MHB2) for evaluation of antibacterial activity and RPMI in the case of evaluation of the antifungal activity. […] Subsequently, the solutions were mixed with MHB2 or RPMI medium to get the final concentration of 8.192 mg/mL (8192 µg/mL). In the next step, the serial, two-fold dilutions of the tested agents (over the range of concentrations from 8192 to 8 µg/mL for reference strains of bacteria and yeasts and from 512 to 1.0 µg/mL for clinical isolates of S. aureus) were prepared in 96-well microtitration plates in the final volume of 100 μL of the appropriate medium.
(§2) The pure bacterial cultures of (both the reference and clinical strains) were grown on the Mueller-Hinton Agar (MHA) for 18–24 h at 37 °C. A small amount of the biomass of the culture of each strain of microorganisms was suspended in the sterile PBS (phosphate buffered saline, pH 7.4 at 25 °C, purchased from Sigma) solution to get an optical density OD600 = 0.13 (equal to the cells concentration approximately 1 × 10^8 CFU/mL). The obtained suspensions of the cells were next diluted 1:100 (v/v) in the MHB2 medium. One hundred µL of the cells’ suspension was finally loaded into the wells of plates prepared in advance, which contained 100 µL of two-fold dilutions of the tested agents (the final concentration of the bacterial cells in all wells was approximately 5 × 10^5 CFU/mL).
(§3) The pure cultures of yeast strains were grown on the Sabouraud Dextrose Agar (SDA) for 18–24 h at 37 °C. Suspensions of the microorganisms were prepared by taking one loop of pure culture into sterile water and adjusting optical density to 0.1 at 660 nm and further 50-fold dilution in RPMI 1640 medium resulting in cells concentration of approximate 2 × 10^4 CFU/mL. One hundred μL of that suspension was inoculated to the wells of the microtitration plate containing appropriate dilutions of the agents. The positive growth control of each strain (both bacteria and yeasts) was performed in the wells without the tested substances. The negative control containing only the media was included in each assay. Microtiter plates were incubated at 37 °C for 24 h. Following the incubation period, determination of the MIC values of the tested agents was carried out by measuring the absorbance at 531 nm using a Victor^3 microplate reader (Perkin Elmer, Inc., Waltham, MA, USA). The lowest concentration of the agent causing inhibition of growth equal to or higher than 90% (MIC90) of growth control was taken as the MIC value. Each test was repeated three times. […]

Escherichia coli K12 = assay: Antimicrobial activity, microdilution MIC, E. coli; assay type: cell-based; settings: for MIC: Escherichia coli, K12, 24 h
Method: as §1, §2, §3

[3] = system: Salmonella typhimurium TA98 strain; settings: TA98, no metabolic activation
Method: A Salmonella mutagenicity test was performed with Salmonella typhimurium TA98 strain (Xenometrics AG, Allschwil, Switzerland) without metabolic activation, following the procedure by Mortelmans and Zeiger [52], with modifications reported Golunski et al. [53] […] Subsequently, the mixture was centrifuged, bacterial pellet washed with 0.75% NaCl and resuspended in 300 µL of 0.75% NaCl solution containing 0.1 µmol each of histidine and biotin, and it was then spread on a glucose minimal (GM) plate. […] All experiments were performed in triplicate. The anticancer drug doxorubicin at 90 ng/plate with known mutagenic effect towards S. typhimurium TA98 was used as a positive control.

[4] = system: Candida albicans ATCC 10231; assay: Antimicrobial activity, microdilution MIC, C. albicans; assay type: cell-based; settings: for MIC: Candida albicans, ATCC10231, 24 h
Method: as §1
(§4) The pure cultures of yeast strains were grown on the Sabouraud Dextrose Agar (SDA) for 18–24 h at 37 °C. Suspensions of the microorganisms were prepared by taking one loop of pure culture into sterile water and adjusting optical density to 0.1 at 660 nm and further 50-fold dilution in RPMI 1640 medium resulting in cells concentration of approximate 2 × 10^4 CFU/mL. One hundred μL of that suspension was inoculated to the wells of the microtitration plate containing appropriate dilutions of the agents. The positive growth control of each strain (both bacteria and yeasts) was performed in the wells without the tested substances. The negative control containing only the media was included in each assay. Microtiter plates were incubated at 37 °C for 24 h. Following the incubation period, determination of the MIC values of the tested agents was carried out by measuring the absorbance at 531 nm using a Victor^3 microplate reader (Perkin Elmer, Inc., Waltham, MA, USA). The lowest concentration of the agent causing inhibition of growth equal to or higher than 90% (MIC90) of growth control was taken as the MIC value. Each test was repeated three times.

[5] = system: Candida glabrata DSMZ 11226; assay: Antimicrobial activity, microdilution MIC, C. glabrata; assay type: cell-based; settings: for MIC: Nakaseomyces glabratus, DSMZ11226, 24 h
Method: as §1, §4

[6] = MIC90, 24 h, MHB2, read-out: MIC S. aureus ATCC 25923
[7] = MIC90, 24 h, MHB2, read-out: MIC E. coli K12
[8] = MIC90, 24 h, RPMI, read-out: MIC C. albicans ATCC 10231
[9] = MIC90, 24 h, RPMI, read-out: MIC C. glabrata DSMZ 11226

| Structure (SMILES) | IC50 ([1]; MTT, 24 h incubation) | MIC S. aureus ATCC 25923 ([2]; MIC90, 24 h, MHB2) | MIC [2, 6] | MIC (Escherichia coli K12; [7]) | MIC E. coli K12 (Escherichia coli K12; MIC90, 24 h, MHB2) | Number of Revertants ([3]; concentration 4 µg/plate) | Number of Revertants ([3]; concentration 20 µg/plate) | Number of Revertants ([3]; concentration 100 µg/plate) | Number of Revertants ([3]; concentration 500 µg/plate) | Number of Revertants ([3]; concentration 2000 µg/plate) | MIC [4, 8] | MIC C. albicans ATCC 10231 ([4]; MIC90, 24 h, RPMI) | MIC C. glabrata DSMZ 11226 ([5]; MIC90, 24 h, RPMI) | MIC [5, 9] | IC50 ([1]; 24 h) | MIC ([2]; read-out: MIC S. aureus ATCC 25923, MIC90, 24 h, MHB2) | MIC (Escherichia coli K12; read-out: MIC E. coli K12, MIC90, 24 h, MHB2) | MIC ([4]; read-out: MIC C. albicans ATCC 10231, MIC90, 24 h, RPMI) | MIC ([5]; read-out: MIC C. glabrata DSMZ 11226, MIC90, 24 h, RPMI) |
| --- | --- | --- | --- | --- | --- | --- | --- | --- | --- | --- | --- | --- | --- | --- | --- | --- | --- | --- | --- |
| c1cc[n+](C2COC3C2OCC3[n+]2ccccc2)cc1 (stereo not shown) [QAS 3] | > 100 µg/mL | >4096 µg/mL | > 4000 µg/mL | > 4000 µg/mL | >4096 µg/mL | 7.3 ± 2.5 | 11.0 ± 1.0 | 10.6 ± 2.1 | 8.7 ± 1.5 | 7.3 ± 2.5 | > 4000 µg/mL | >4096 µg/mL | >4096 µg/mL | > 4000 µg/mL | – | – | – | – | – |
| CN(C)c1cc[n+](C2COC3C2OCC3[n+]2ccc(N(C)C)cc2)cc1 (stereo not shown) [QAS 4] | > 100 µg/mL | >4096 µg/mL | > 4000 µg/mL | > 4000 µg/mL | >4096 µg/mL | 8.3 ± 0.6 | 9.7 ± 1.5 | 10.0 ± 2.6 | 7.0 ± 3.5 | 6.0 ± 2.6 | > 4000 µg/mL | >4096 µg/mL | >4096 µg/mL | > 4000 µg/mL | – | – | – | – | – |
| NC(=O)c1ccc[n+](C2COC3C2OCC3[n+]2cccc(C(N)=O)c2)c1 [QAS 5, N,N’-(1,4:3,6-Dianhydro-2,5-dideoxy-L-iditol-2,5-diyl)-bis[(3-carboxamide)pyridinium] Ditrifluoromethanesulfonate] | > 100 µg/mL | >4096 µg/mL | > 4000 µg/mL | > 4000 µg/mL | >4096 µg/mL | 14.3 ± 5.5 | 8.0 ± 3.5 | 12.0 ± 2.0 | 12.7 ± 2.5 | 11.0 ± 1.7 | > 4000 µg/mL | >4096 µg/mL | >4096 µg/mL | > 4000 µg/mL | – | – | – | – | – |
| Cn1cc[n+](C2COC3C2OCC3[n+]2ccn(C)c2)c1 [QAS 6, N,N’-(1,4:3,6-Dianhydro-2,5-dideoxy-L-iditol-2,5-diyl)-bis(N-methylimidazolium) Ditrifluoromethanesulfonate] | > 100 µg/mL | >4096 µg/mL | > 4000 µg/mL | > 4000 µg/mL | >4096 µg/mL | 13.3 ± 3.2 | 10.0 ± 2.0 | 9.0 ± 3.6 | 16.0 ± 6.2 | 13.7 ± 2.9 | > 4000 µg/mL | >4096 µg/mL | >4096 µg/mL | > 4000 µg/mL | – | – | – | – | – |
| C[N+](C)(C)C1COC2C1OCC2[N+](C)(C)C (stereo not shown) [QAS 7] | – | >4096 µg/mL | – | – | >4096 µg/mL | 11.0 ± 3.0 | 10.7 ± 4.9 | 11.3 ± 3.5 | 13.7 ± 1.5 | 11.3 ± 3.2 | – | >4096 µg/mL | >4096 µg/mL | – | > 100 µg/mL | > 4000 µg/mL | > 4000 µg/mL | > 4000 µg/mL | > 4000 µg/mL |
